Broadly, the vapor or sublimation pressure is the pressure of vapour in equilibrium with the condensed phase.

± gives the expanded uncertainty stated by the source.

Experimental findings from the NIST ThermoML archive (doi:10.1021/acs.jced.5b00773) are described below.

The conditions of the data set: Liquid, Closed cell (Static) method.

On to `CCC(C)O` (stereo not drawn) [butan-2-ol], for which the “vapor or sublimation pressure” value (473.46 K) was 1500 ± 10 kPa.

For `CCOC(C)=O` [ethyl acetate], the “vapor or sublimation pressure” value (462.75 K) is on record as 1500 ± 10 kPa.

With `COC(C)=O` [methyl ethanoate], the “vapor or sublimation pressure” value (436.08 K) came out at 1500 ± 10 kPa.
